What was measured:
Apo E-/-mice [1] = experiment: Intimal vessels in aortic sinus plaques by immunohistochemistry (CD31, vWf); assay type: in vivo; conditions: for Neovascularization (+) aortic sinus plaques (number): of 22 (endostatin) and 27 (TNP-470) plaques, control 7 of 24; for Percentage of aortic sinus plaques that contained any intimal vessels: treated mice, control 29%
Experimental: To detect intimal capillaries, the hearts and portions of the descending aorta with substantial lesions were embedded in paraffin, sectioned (10 μm), digested with 0.02% protease XXIV (Sigma) for 6 minutes at room temperature, and incubated with rabbit polyclonal anti-human vWf antibody (Dako, Carpinteria, Calif., 1:500 dilution) or rat monoclonal anti-mouse CD31 antibody (Pharmigen, San Diego, Calif., 20 Tg/ml). When acetone-fixed frozen sections were stained, the CD31 antibody was used at 5 Tg/ml. The bound antibodies against vWf or CD31 were detected with biotinylated goat anti-rabbit or rabbit anti-rat (mouse absorbed) antibodies (Vector, Burlinghame, Calif., 1:250 dilution) and the avidin-biotin peroxidase complex (ABC standard kit, Vector). A red reaction product was produced with 3-amino-9-ethyl carbazole substrate (AEC, Dako) and sections were counterstained with Gill's hematoxylin (Sigma). Vascular sections incubated with non-immune serum served as negative controls. Positive staining of the endothelium on the lumen and in adventitial capillaries served as an internal control. Intimal vessels were identified under high power (400×) and counted when both an endothelial cell nucleus and lumen were seen and when the vessel was also observed in an adjacent section.
(§1) Plaque Area. To determine the extent of atherosclerosis at the aortic origin, 40 serial sections (8-10 Tm thickness) of the aortic sinus were collected on 10 slides (Paigen, B., et al., Artherosclerosis 68: 231-40, 1987). Every second slide was stained with hematoxylin and eosin for morphometry. The rest were used for immunohistochemistry to count intimal vessels and determine intimal smooth muscle cell contents. Plaque images were captured at 100× magnification with a Hitachi HV-C20 3CCD digital camera and measured with the Leica Q500MC image analysis program (Dong, Z. M., et al., J. Clin. Invest. 102: 145-52, 1998). Lesion area for each animal was reported as the mean intimal cross-sectional area (mm^2). In the early-stage experiment, plaque involvement in the entire aorta was also measured by image analysis as the percentage of aortic surface area covered with lesions (Tangiala, R. K., et al., J. Lipid. Res. 36: 2320-8, 1995; Dong, Z. M., et al., J. Clin. Invest. 102: 145-52, 1998)

Apo E-/-mice [2] = experiment: Intimal smooth muscle cell content of aortic sinus lesions; assay type: in vivo; conditions: median (range), control 20.4
Experimental: Smooth muscle cells were identified with a monoclonal IgG2a antibody against human smooth muscle cell I actin (Dako, M0851; Nakashima, Y., et al, Arteriocler. Thromb. 14: 133-40, 1994). Sections were immersed in 0.1 M sodium citrate, pH 6.0 and heated for 10 minutes in the microwave. Primary antibody was bound to sections at 3 Tg/ml and then visualized with biotinylated anti-mouse IgG2a antibody (1:200 dilution, Amersham RPN1181) and the ABC method described above. The adjacent medial layer of vessels served as positive control.
Intimal smooth muscle cell content. To determine if angiogenesis inhibitor treatments affected smooth muscle cell migration or proliferation in lesions, two slides from the middle of the aortic sinus were stained for smooth muscle cell α actin. For each animal, the number of intimal smooth muscle cells and total cell nuclei were counted in 8 non-overlapping fields. A smooth muscle cell was counted only if it stained for smooth muscle cell α actin and its cell nucleus was seen. The mean percentage of smooth muscle cells relative to total cells was determined for each animal.

Apo E-/-mice [3] = experiment: Plaque area at the aortic origin in cholesterol-fed Apo E-/- mice; assay type: in vivo; conditions: for Plaque measurements at the aortic origin versus control: early-stage experiment, treated age 6 to 22 weeks, not shown; for Inhibition of plaque growth: age 20 to 36 weeks, [100][1-(median treated-0.25)/(median control-0.25)]
Excerpt: Male Apo E-/-mice (Jackson Labs, Bangor Me.) were fed a 0.15% cholesterol diet (Western Type #88137, Teklad) from age 6-8 weeks. At 20 weeks of age, ten animals were sacrificed to evaluate the baseline extent of atherosclerosis.
(§2) After 16 weeks of treatment, animals were euthanized with methoxyflurane. A blood sample was obtained from the right ventricle for the analysis of serum cholesterol, performed by an automated calorimetric assay on a Hitachi 917 instrument (Children's Hospital, Boston, Mass.). The heart and aorta were perfusion-fixed with 2% paraformaldehyde and dissected as described (Palinski, W., et al., Arterioscler. Thromb. 14: 605-16, 1994; Tangirala, R. K., et al., J. Lipid Res. 36:2320-8, 1995). Atherosclerotic plaques in the aortas were used for histology and plaque areas were only determined at the aortic origin (Paigen, B., et al., Artherosclerosis 68: 231-40, 1987). However, to document the extent of disease in the total aorta, the unopened aortas were photographed.
(§3) The effects of these angiogenesis inhibitors on late stage lesions were then compared to their effects on early lesions, in which intimal vessels were rarely observed. Animals were treated with endostatin or TNP-470 from age 32 to 48 weeks (late-stage experiment) or from 6 to 22 weeks (early-stage experiment). Plaque involvement was measured at the aortic origin. Since the aortas from early stage animals were not used for immunohistochemistry in these experiments, the extent of atherosclerosis was also measured in the entire aorta (percent surface area of Sudan IV stained-lesions; Paliniski, W., et al., Arteriosclr. Thromb. 14: 605-16, 1994).
(§4) The Apo E-/-mice received 20 mg/kg of endostatin subcutaneously every day.
The fumagillin analogue TNP-470 was provided for these studies by TAP Holdings, Deerfield Ill. An injection solution of TNP-470 (3 mg/ml) was freshly prepared and mice received 30 mg/kg subcutaneously every other day. Control animals received a similar volume of saline or endostatin buffer.
as §1

Apo E-/-mice [4] = experiment: Extent of atherosclerosis in the entire aorta (Sudan IV stained lesions, photographed aortas); assay type: in vivo; conditions: for Median percent plaque area of the entire aorta (Sudan IV-positive lesions): early-stage experiment, treated age 6 to 22 weeks, control 14.4%; for Plaque surface area on photographed images of the entire aorta: treated 20 to 36 weeks, not shown
Excerpt: as §2, §3, §1

[5] = Animal health, weight and tolerability during treatment; assay type: in vivo, mice
Experimental: Animal health and weight was monitored throughout treatment.
as §4

angiogenesis = conditions: corneal micropocket assay; Ingber 1990; cited from earlier work
Apo E-/-mice [6] = experiment: Plaque cell density of aortic sinus lesions; assay type: in vivo; conditions: aortic sinus plaques, median (range), control 1183
Experimental: Plaque cell density. Cell densities in aortic sinus plaques were evaluated to determine if endostatin or TNP-470 treatments affected lesion cellularity. Cell nuclei in the intima of the aortic sinus plaques were counted at three mid-lesion levels (slides 4, 6, and 8). Cell density was reported as the number of cells per intimal area (cells/mm^2).

primary tumor growth = conditions: 20 mg/kg per day s.c.; Boehm 1997; cited from earlier work
[7] = first experiment, treated age 20 to 36 weeks, endostatin 20 mg/kg s.c. daily, TNP-470 30 mg/kg s.c. every other day, control 0.751, baseline 0.250
[8] = late-stage experiment, treated age 32 to 48 weeks, control 0.584
[9] = second experiment, treated 20 to 36 weeks, control 0.690

Substance | Neovascularization (+) aortic sinus plaques (number) (Apo E-/-mice [1]) | Percentage of aortic sinus plaques that contained any intimal vessels (Apo E-/-mice [1]) | SMC (%), median smooth muscle cell content of aortic sinus lesions (Apo E-/-mice [2]) | Plaque measurements at the aortic origin versus control (Apo E-/-mice [3]) | Inhibition of plaque growth (Apo E-/-mice [3]; first experiment) | Median plaque area at the aortic origin (Apo E-/-mice [3]; [7]) | Median plaque area at the aortic origin (Apo E-/-mice [3]; [8]) | Median plaque area at the aortic origin (Apo E-/-mice [3]; [9]) | Median percent plaque area of the entire aorta (Sudan IV-positive lesions) (Apo E-/-mice [4]) | Plaque surface area on photographed images of the entire aorta (Apo E-/-mice [4]) | other results
O-chloracetyl-carbamoylfumagillol [TNP-470] | 0 | 0% | 19.8 (14.6-23.5) % | no difference | 70% | 0.402 mm^2 | 0.448 mm^2 | 0.370 mm^2 | 11.7% | noticeable reduction | Percentage of animals available for analysis ([5]; all studies, control 91%): 89%; Weight gained during treatment ([5]; treated age 20 to 36 weeks, control 8 g): 4 g; Median weight after treatment ([5]; treated age 20 to 36 weeks, control 35 g): 31 g; Final weight ([5]; treated age 32 to 48 weeks, control 35 g): 33 g; Inhibition of angiogenesis (angiogenesis): 70%
endostatin | 1 | 5% | 19.4% | no difference | 85% | 0.321 mm^2 | 0.422 mm^2 | 0.475 mm^2 | 9.6% | noticeable reduction | Cell Density, median (Apo E-/-mice [6]): 1645 cells/mm^2; Cell Density, median (Apo E-/-mice [6]; listed as Endostatin): 1646 (962-2361) cells/mm^2; SMC (%), median smooth muscle cell content of aortic sinus lesions (Apo E-/-mice [2]; listed as Endostatin): 19.4 (16.2-22.7) %; Tolerability of injections ([5]; 20 mg/kg s.c. every day): tolerated the injections; Percentage of animals available for analysis ([5]; mouse, in vivo): 92%; Inhibition of primary tumor growth (primary tumor growth): over 95%
